From US20230027601A1, “METHOD FOR MANUFACTURING REVAUDIOSIDE-D-CONTAINING CRYSTALLIZED PRODUCT, AND REVAUDIOSIDE-D-CONTAINING CRYSTALLIZED PRODUCT” (SUNTORY HOLDINGS LIMITED, priority 2019, published 2023)

Experiment: saturated solubility of RebA and RebD in ethanol solvent (excess loading, 24 h stirring, filtrate measured with LCMS)
Assay type: physicochemical
Settings: for saturated solubility: 90% by mass of EtOH, 10° C., values used in calculation of the degree of supersaturation; for saturated dissolution concentration: 90% ethanol solvent at 10° C., according to FIG. 1
Experimental: The saturated solubility is herein measured according to the following method. That is, 100 ml of a solvent having a predetermined methanol or ethanol concentration (w/w) is placed in a container (having a volume of 100 ml or 200 ml, suitably 200 ml), the liquid temperature is set to 10° C. by a water bath in advance, and then the solvent is stirred at 200 rpm, and a target substance is loaded in an excessive amount (amount until suspension is made). After 24 hours, a filtrate is obtained by a 0.45-um membrane filter, and the amount of the target substance (RebA or RebD) included in the filtrate is measured with LCMS. LCMS here used is suitably LCMS 8050 manufactured by Shimadzu Corporation.
Specifically, 100 ml of a solvent having a predetermined ethanol concentration (w/w) was placed in a […] glass container (separable round-bottomed flask, Tokyo Rikakikai Co., Ltd.), set to a predetermined temperature by a water bath (PCC-7000, Tokyo Rikakikai Co., Ltd.) in advance, and then stirred (SPZ-100, Tokyo Rikakikai Co., Ltd.) at 200 rpm, and RebA (J-100, Morita Kagaku Kogyo Co., Ltd.) or RebD (Jining Renewal & Joint International, China) was loaded in an excessive amount (amount until suspension was achieved). After 24 hours, a filtrate was obtained by a 0.45-um membrane filter, the amount of RebA or RebD included in the filtrate was measured with LCMS (LCMS 8050 manufactured by Shimadzu Corporation), and the solubility curve was created. The results are illustrated in FIG. 1.

saturated solubility [ppm]	saturated dissolution concentration	SMILES
99.33	99.3 ppm	C=C1C[C@@]23CC[C@H]4[C@@](C)(CCC[C@@]4(C)C(=O)O[C@@H]4O[C@H](CO)[C@@H](O)[C@H](O)[C@H]4O[C@@H]4O[C@H](CO)[C@@H](O)[C@H](O)[C@H]4O)[C@@H]2CC[C@]1(O[C@@H]1O[C@H](CO)[C@@H](O)[C@H](O[C@@H]2O[C@H](CO)[C@@H](O)[C@H](O)[C@H]2O)[C@H]1O[C@@H]1O[C@H](CO)[C@@H](O)[C@H](O)[C@H]1O)C3 [RebD, rebaudioside D]
8270.5	8,250 ppm	C=C1C[C@@]23CC[C@H]4[C@@](C)(CCC[C@@]4(C)C(=O)O[C@@H]4O[C@H](CO)[C@@H](O)[C@H](O)[C@H]4O)[C@@H]2CC[C@]1(O[C@@H]1O[C@H](CO)[C@@H](O)[C@H](O[C@@H]2O[C@H](CO)[C@@H](O)[C@H](O)[C@H]2O)[C@H]1O[C@@H]1O[C@H](CO)[C@@H](O)[C@H](O)[C@H]1O)C3 [RebA, rebaudioside A]
